≈ marks a conversion by molar mass, not a printed value.
Columns and labels:
[1] = test system: A. baumannii strain 5075 (AB5075); test: Broth microdilution MIC determination of compound alone; format: cell-based; conditions: Acinetobacter baumannii; compound alone; AB5075; read-out: MIC
Procedure: Our initial screening began by testing a diverse selection of 2-AI compounds from our internal library for their minimal inhibitory concentrations (MIC) against A. baumannii isolate 5075.
Day Cultures (6 h) were subcultured to 5×10^5 CFU/mL in cation adjusted Mueller-Hinton broth (CAMHB). Aliquots (1 mL) were placed in culture tubes, and compound was added from 100 mM stock solutions, such that the compound concentration equaled the highest concentration tested (200 μM or 64 μg/mL). Samples were then aliquoted (200 μL) into the first row of wells of a 96-well plate, with all remaining wells being filled with 100 μL of initial bacterial subculture. The wells in row one were mixed five times before 100 μL was transferred to the following row (row two). Row two was then mixed five times, and 100 μL was transferred to row three. This processed was repeated until the final row had been mixed. This process provided a serial dilution of the compound. Plates were covered with Glad Press n'Seal and were incubated under stationary conditions at 37° C. for 16 hours. MIC values were recorded as the lowest concentration at which no bacterial growth was observed.

[2] = test system: A. baumannii strain 5075 (AB5075); test: Macrolide sensitization / antibiotic resensitization: antibiotic MIC in presence of compound (broth microdilution); format: cell-based, Acinetobacter baumannii; conditions: AB5075; for MIC: Acinetobacter baumannii, read-out: MIC (μg/mL) of the antibiotic; for MIC / MIC (μg/mL) of the antibiotic: antibiotic alone, no compound (control row)
Procedure: A. baumannii 5075 was plated on LB agar, then grown in CAMHB for 6-8 h and this culture was used to inoculate fresh CAMHB (5×10^5 CFU/mL). The resulting suspension was aliquoted (5 mL) into culture tubes and compound, from 100 mM DMSO stock, was added. One aliquot was not treated (control). 1 mL of each sample was transferred to a new culture tube and antibiotic was added. Rows 2-12 of a 96-well microtiter plate were filled with 100 μL/well from the remaining 4 mL bacterial subcultures, allowing the concentration of compound to be kept uniform throughout the antibiotic dilution procedure. Samples containing antibiotic were aliquoted (200 μL) into the corresponding first row wells of the microtiter plate. Row 1 wells were mixed 6 to 8 times then 100 μL was withdrawn and transferred to row 2. Row 2 wells were mixed 6 to 8 times, followed by a 100 μL transfer from row 2 to row 3. This procedure was repeated to serially dilute the rest of the rows of the microtiter plate, with the exception of the final row, to which no antibiotic was added (to check for growth of bacteria in the presence of compound alone). The microtiter plate was then covered, placed in a covered damp plastic container and incubated under stationary conditions at 37° C. After 16-18 hrs minimum inhibitory concentration (MIC) values were recorded as the lowest concentration of antibiotic at which there was no visible growth of bacteria. Experiments were carried out in duplicate each time and repeated at least twice.
The difference in antibiotic MIC between the control (no compound) sample, and the samples containing each compound was recorded as the fold-reduction.
Day Cultures (6 h) were subcultured to 5×10^5 CFU/mL in cation adjusted Mueller-Hinton broth (CAMHB). […] One milliliter of the resulting solution was aliquoted into a separate culture tube and was dosed with antibiotic so that the resulting concentration was the highest desirable concentration to be tested. Bacteria treated with antibiotic alone were used as a control. Row one of a 96-well plate was filled with 200 μL of the antibiotic/compound solution, and the remaining rows were filled with 100 μL of the remaining 4 mL bacterial subculture. The wells in row one were mixed five times before 100 μL was transferred to the following row (row two). Row two was then mixed five times, and 100 μL was transferred to row three. This process was repeated until the second to last row had been reached. The last row is left unexposed to antibiotic in order to serve as a negative control. The antibiotic only treated bacteria was plated by aliquoting 200 μL of the treated bacteria into row one and filling the remaining rows with untreated bacteria from the original bacteria subculture. The rows were mixed in the same way as described above. Plates were covered with Glad Press n'Seal and were incubated under stationary conditions at 37° C. for 16 hours. MIC values were recorded as the lowest concentration at which no bacterial growth was observed. Fold reductions were determined by comparison of the compound treated wells with the antibiotic only treated control wells.

[3] = compound at 60 μM vs antibiotic alone
[4] = compound at 30 μM vs antibiotic alone

Work on `Nc1nc(CCCCCc2cn(-c3ccc(C(=O)NCCc4ccccc4)cc3)nn2)c[nH]1` yielded an MIC [1] of over 200 µM.

For `Nc1nc(-c2ccc(NC(=O)c3cccc(Br)c3)cc2)c[nH]1` [Compound 19], the MIC [1] was over 200 µM and the “Fold reduction (erythromycin MIC)” value [2, 3] was 8 fold.

`CC(=O)NC[C@H]1CN(c2ccc(N3CCOCC3)c(F)c2)C(=O)O1` [Linezolid, linezolid, reference compound] was tested, and the MIC [2] was 256 µg/mL.

For `CCCCCCCCCCNC(=O)Cn1cc(CCCCCc2c[nH]c(N)n2)nn1.Cl` [Compound 6], the MIC [1] was over 200 µM and the “Fold reduction (erythromycin MIC)” value [2, 3] was 4 fold.

`CO[C@H]1C[C@H](O[C@H]2[C@H](C)[C@@H](O[C@@H]3O[C@H](C)C[C@H](N(C)C)[C@H]3O)[C@@H](C)C[C@@]3(CO3)C(=O)[C@H](C)[C@@H](O)[C@@H](C)[C@@H](C)OC(=O)[C@@H]2C)O[C@@H](C)[C@@H]1O` [Oleandomycin, oleandomycin, reference compound] was tested, and the “MIC (μg/mL) of the antibiotic” value [2] was 256 µg/mL.

`CCCCCc1ccc(C(=O)NCCn2cc(CCCCCc3cnc(N)n3Cc3ccc(CCCC)cc3)nn2)cc1` [Compound 7] was tested, and the MIC [1] was 200 µM (≈ 117 µg/mL) and the “Fold reduction (erythromycin MIC)” value [2, 3] was 4 fold.

In the case of `CCCCCCc1ccc(-c2nc(N)[nH]c2CCCCCC)cc1`, the MIC [1] is reported as over 200 µM.

With `Cl.Nc1ncc(CCCCCc2ccccc2)[nH]1` [Compound 13] the MIC [1] was 200 µM and the “Fold reduction (erythromycin MIC)” value [2, 4] was 4 fold.

Compound `CCCCCCC/C=C\CCCCCCCc1c[nH]c(N)n1` has an MIC [1] of over 200 µM.

In the case of colistin [reference compound], the “MIC (μg/mL) of the antibiotic” value [2] is reported as 0.5 µg/mL.

With `Nc1nc(-c2ccc(NC(=O)c3ccc(C(F)(F)F)cc3)cc2)c[nH]1` [Compound 23] the MIC [1] was 50 µM (≈ 17.3 µg/mL).

For `Nc1nc2cc(NC(=O)c3c(F)c(F)c(F)c(F)c3F)ccc2[nH]1`, the MIC [1] was over 200 µM.

In the case of `Nc1nc(-c2ccc(NC(=O)c3ccc(Br)cc3F)cc2)c[nH]1` [Compound 21], the MIC [1] is reported as over 200 µM and the “Fold reduction (erythromycin MIC)” value [2, 3] is reported as 8 fold.

`Nc1nc(-c2ccc(NC(=O)c3ccccc3F)cc2)c[nH]1` [Compound 22] was tested, and the MIC [1] was over 200 µM.

`CCCCCCC(=O)Nc1ccc2[nH]c(N)nc2c1` showed an MIC [1] of over 200 µM.

With `Nc1nc(CCCNC(=O)c2cc(Br)c(Br)[nH]2)c[nH]1` the MIC [1] was over 200 µM.

`C/C(=C\c1ccccc1)CNC(=O)Cn1cc(CCCCCc2c[nH]c(N)n2)nn1` was tested, and the MIC [1] was over 200 µM.

In the case of `Nc1nc(-c2ccc(NC(=O)c3c(F)c(F)c(F)c(F)c3F)cc2)c[nH]1` [Compound 17], the MIC [1] is reported as over 200 µM and the “Fold reduction (erythromycin MIC)” value [2, 3] is reported as 4 fold.

`Nc1nc(-c2ccc(NC(=O)c3cc(F)c(F)c(F)c3)cc2)c[nH]1` [Compound 8] was tested, and the MIC [1] was 100 µM (≈ 33.2 µg/mL), the “Fold reduction (clarithromycin MIC)” value [2, 4] was 32 fold and the “Fold reduction (erythromycin MIC)” value [2, 4] was 8 fold.

Work on `[H]/N=C(/N)N[C@H]1[C@H](O)[C@@H](O)[C@H](O[C@@H]2O[C@@H](C)[C@](O)(C=O)[C@H]2O[C@@H]2O[C@@H](CO)[C@H](O)[C@@H](O)[C@@H]2NC)[C@@H](N/C(N)=N\[H])[C@@H]1O` [Streptomycin, reference compound] yielded an MIC [2] of over 512 µg/mL.

For `CCCCCC(=O)Nc1ccc(-c2c[nH]c(N)n2)cc1.Cl` [Compound 3], the MIC [1] was over 200 µM, the “Fold reduction (azithromycin MIC)” value [2, 3] was 8 fold and the “Fold reduction (clarithromycin MIC)” value [2, 3] was 32 fold. The “Fold reduction (erythromycin MIC)” value [2, 3] was 16 fold and the “Azithromycin MIC” value ([2]; in presence of compound at 60 μM) was 8 µg/mL.

`CCCCCCC(CCCCCC)NC(=O)CCCc1c[nH]c(N)n1` showed an MIC [1] of 100 µM (≈ 35.1 µg/mL).

`CCCCCCc1ccc(-c2c[nH]c(N)n2)cc1` gave an MIC [1] of 100 µM (≈ 24.3 µg/mL).

For `CCCCCCC(=O)Nc1cccc(-c2c[nH]c(N)n2)c1.Cl` [Compound 11], the MIC [1] was over 200 µM and the “Fold reduction (erythromycin MIC)” value [2, 3] was 4 fold.

With `CO[C@@H]1[C@@H](O[C@@H]2O[C@H](C)[C@@H](O[C@H]3C[C@@](C)(O)[C@@H](OC(=O)CC(C)C)[C@H](C)O3)[C@H](N(C)C)[C@H]2O)[C@@H](CC=O)C[C@@H](C)[C@@H](O)/C=C/C=C/C[C@@H](C)OC(=O)C[C@H]1OC(C)=O` [Josamycin, josamycin, reference compound] the “MIC (μg/mL) of the antibiotic” value [2] was 128 µg/mL.

`Nc1nc(-c2ccc(NC(=O)c3ccc(Br)cc3)cc2)c[nH]1` [Compound 18] was tested, and the MIC [1] was over 200 µM and the “Fold reduction (erythromycin MIC)” value [2, 3] was 4 fold.

For `Nc1nc(-c2ccc(NC(=O)c3cccc(F)c3)cc2)c[nH]1` [Compound 14], the MIC [1] was over 200 µM and the “Fold reduction (erythromycin MIC)” value [2, 3] was 8 fold.

Neomycin [reference compound] was tested, and the “MIC (μg/mL) of the antibiotic” value [2] was 64 µg/mL.

With `CO[C@H]1C[C@H](O[C@H]2[C@H](C)[C@@H](O[C@@H]3O[C@H](C)C[C@H](N(C)C)[C@H]3OC(C)=O)[C@@H](C)C[C@@]3(CO3)C(=O)[C@H](C)[C@@H](OC(C)=O)[C@@H](C)[C@@H](C)OC(=O)[C@@H]2C)O[C@@H](C)[C@@H]1OC(C)=O` [Troleandomycin, troleandomycin, reference compound] the MIC [2] was over 512 µg/mL.

`Cl.Nc1nc(-c2ccc(NC(=O)/C=C/c3ccccc3)cc2)c[nH]1` [Compound 2] was tested, and the MIC [1] was 100 µM, the “Fold reduction (azithromycin MIC)” value [2, 4] was 4 fold and the “Fold reduction (clarithromycin MIC)” value [2, 4] was 32 fold. The “Fold reduction (erythromycin MIC)” value [2, 4] was 8 fold and the “Azithromycin MIC” value ([2]; in presence of compound at 30 μM) was 16 µg/mL.

Work on `CCCCCCCCn1cc(Cc2ccccc2)nc1N` yielded an MIC [1] of over 200 µM.

Compound `NC[C@H]1O[C@H](O[C@H]2[C@H](O)[C@@H](O[C@H]3O[C@H](CO)[C@@H](O)[C@H](N)[C@H]3O)[C@H](N)C[C@@H]2N)[C@H](N)C[C@@H]1O` [Tobramycin, reference compound] has an MIC [2] of 256 µg/mL.

For `Nc1nc(-c2ccc(NC(=O)c3ccc(Cl)c(Cl)c3)cc2)c[nH]1` [Compound 9], the MIC [1] was 100 µM (≈ 34.7 µg/mL), the “Fold reduction (clarithromycin MIC)” value [2, 4] was 64 fold and the “Fold reduction (erythromycin MIC)” value [2, 4] was 16 fold.

Compound `CCCCCCCCCC(=O)N[C@@H](Cc1c[nH]c2ccccc12)C(=O)N[C@H](CC(N)=O)C(=O)N[C@@H](CC(=O)O)C(=O)N[C@@H]1C(=O)NCC(=O)N[C@@H](CCCN)C(=O)N[C@@H](CC(=O)O)C(=O)N[C@H](C)C(=O)N[C@@H](CC(=O)O)C(=O)NCC(=O)N[C@H](CO)C(=O)N[C@@H]([C@H](C)CC(=O)O)C(=O)N[C@@H](CC(=O)c2ccccc2N)C(=O)O[C@@H]1C` [Daptomycin, reference compound] has an MIC [2] of 2050 µg/mL.

Work on `CC1(C)CC(=O)N(c2ccc3[nH]c(N)nc3c2)C(=O)C1` yielded an MIC [1] of over 200 µM.

Work on `Nc1nc(-c2ccc(NC(=O)c3ccc(C(F)(F)F)c(F)c3)cc2)c[nH]1` [Compound 24] yielded an MIC [1] of 25 µM (≈ 9.11 µg/mL).

In the case of `Cc1ccc(C(=O)Nc2ccc3[nH]c(N)nc3c2)cc1`, the MIC [1] is reported as over 200 µM.

`CCOc1ccc(Cn2c(CCCCCc3cn(CCNC(=O)c4ccc(C)cc4)nn3)cnc2N)cc1OCC` was tested, and the MIC [1] was 100 µM (≈ 56 µg/mL).

`Nc1nc(-c2ccc(NC(=O)c3ccc(Cl)cc3Cl)cc2)c[nH]1` [Compound 20] was tested, and the MIC [1] was over 200 µM and the “Fold reduction (erythromycin MIC)” value [2, 3] was 4 fold.

For `NC[C@H]1O[C@H](O[C@H]2[C@H](O)[C@@H](O[C@H]3O[C@H](CO)[C@@H](O)[C@H](N)[C@H]3O)[C@H](N)C[C@@H]2N)[C@H](O)[C@@H](O)[C@@H]1O` [Kanamycin, reference compound], the MIC [2] was over 512 µg/mL.

`NCC[C@H](O)C(=O)N[C@@H]1C[C@H](N)[C@@H](O[C@H]2O[C@H](CN)[C@@H](O)[C@H](O)[C@H]2O)[C@H](O)[C@H]1O[C@H]1O[C@H](CO)[C@@H](O)[C@H](N)[C@H]1O` [Amikacin, reference compound] was tested, and the “MIC (μg/mL) of the antibiotic” value [2] was 128 µg/mL.

Gentamicin [reference compound] was tested, and the “MIC (μg/mL) of the antibiotic” value [2] was over 512 µg/mL.

spiramycin [reference compound] was tested, and the “MIC (μg/mL) of the antibiotic” value [2] was over 512 µg/mL.

Work on `CCCCCCCCCC(=O)NCCn1cc(CCCCCc2c[nH]c(N)n2)nn1` yielded an MIC [1] of over 200 µM.

Reference: patent publication US20210283107A1, “Methods to Expand the Spectrum of Gram-Positive Antibiotics” (NORTH CAROLINA STATE UNIVERSITY, priority 2016, published 2021)
